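Briefly, cells in 96-well plates were exposed to five compound concentrations for 48 h, and endpoints were estimated by linear interpolation. Abbreviation: GI50, concentration required for 50% inhibition of growth. TGI: total growth inhibition.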
Key:
Assay in all cases: DTP human tumour cell line panel, 48 h
[1] = system: SK-OV-3 ovarian
[2] = system: SW-620 colon
[3] = system: SK-MEL-5 melanoma
[4] = system: COLO 205 colon
[5] = system: TK-10 renal
[6] = system: RPMI-8226 leukemia
[7] = system: SNB-75 CNS
[8] = system: NCI-H460 lung
[9] = system: SK-MEL-28 melanoma
[10] = system: OVCAR-5 ovarian

| SMILES | GI50 [1] [µM] | TGI [1] [µM] | GI50 [2] [µM] | TGI [2] [µM] | GI50 [3] [µM] | TGI [3] [µM] | GI50 [4] [µM] | TGI [4] [µM] | GI50 [5] [µM] | TGI [5] [µM] | GI50 [6] [µM] | TGI [6] [µM] | GI50 [7] [µM] | TGI [7] [µM] | GI50 [8] [µM] | TGI [8] [µM] | GI50 [9] [µM] | TGI [9] [µM] | GI50 [10] [µM] | TGI [10] [µM] |
| --- | --- | --- | --- | --- | --- | --- | --- | --- | --- | --- | --- | --- | --- | --- | --- | --- | --- | --- | --- | --- |
| O=C(NCc1cn(Cc2cccc(Oc3ccccc3)c2)nn1)c1cccnc1NCc1ccc(Cl)cc1 | 3.32 | 69.2 | 4.04 | > 100 | 2.53 | 7.4 | 2.18 | 4.04 | 3.7 | 49.1 | 3.12 | > 100 | 2.02 | 7.77 | 2.85 | 7.83 | 2.95 | > 100 | 5.62 | > 100 |
| CC12CC(c3ccccc3O1)C(C(=O)Nc1nccs1)C(=O)N2 (stereo not given) | – | > 100 | – | > 100 | – | > 100 | – | > 100 | – | > 100 | – | > 100 | – | > 100 | – | > 100 | – | > 100 | – | > 100 |

Reference: PubChem BioAssay (NCI)
